The values below come from ChEMBL document CHEMBL2034937, “Novel 3-Oxazolidinedione-6-aryl-pyridinones as Potent, Selective, and Orally Active EP3 Receptor Antagonists” (ACS Med Chem Lett, 2010).

Data set [1] can be described thus: Oral bioavailability in Sprague-Dawley rat at 2 mg/kg. The class given is ADME, organism-based. The note with it: in vivo.
The target of data set [2] is T1, Prostaglandin E2 receptor EP1 subtype (Homo sapiens, UniProt P34995).
T1 sequence (P34995 whole entry): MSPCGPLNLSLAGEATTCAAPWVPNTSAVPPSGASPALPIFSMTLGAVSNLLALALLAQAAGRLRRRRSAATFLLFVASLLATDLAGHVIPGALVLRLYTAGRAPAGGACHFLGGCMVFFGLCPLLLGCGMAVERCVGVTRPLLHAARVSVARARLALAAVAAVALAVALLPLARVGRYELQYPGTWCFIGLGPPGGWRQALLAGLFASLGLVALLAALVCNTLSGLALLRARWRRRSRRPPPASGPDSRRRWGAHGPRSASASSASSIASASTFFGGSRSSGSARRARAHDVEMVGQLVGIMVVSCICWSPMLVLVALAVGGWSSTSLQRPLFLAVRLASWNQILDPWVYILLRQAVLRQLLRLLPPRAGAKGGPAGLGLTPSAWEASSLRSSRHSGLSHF
The experiment in a line: Antagonist activity at EP1 receptor in human U2OS cells expressing Gqi5 assessed as inhibition of PGE2-induced response after 24 hrs by FLIPR assay. The class given is functional, cell-based.

Data set [3] is described as follows: Half life in Sprague-Dawley rat at 1 mg/kg, iv. In kind it is ADME, organism-based. Also noted: dose 1 mg/kg, route intravenous. To be noted: in vivo.
Data set [4] can be described thus: Clearance in Sprague-Dawley rat at 1 mg/kg, iv and 2 mg/kg, po. The class given is ADME, organism-based. The note with it: in vivo.
Data set [5] deals with Rattus norvegicus. Briefly: Dose-normalized AUC in Sprague-Dawley rat at 2 mg/kg, po. The note with it: in vivo. Also noted: dose 2 mg/kg, route oral. The class given is ADME, organism-based.
Data set [6] deals with T2, Prostaglandin E2 receptor EP3 subtype (Rattus norvegicus, UniProt P34980).
T2 sequence (P34980 whole entry): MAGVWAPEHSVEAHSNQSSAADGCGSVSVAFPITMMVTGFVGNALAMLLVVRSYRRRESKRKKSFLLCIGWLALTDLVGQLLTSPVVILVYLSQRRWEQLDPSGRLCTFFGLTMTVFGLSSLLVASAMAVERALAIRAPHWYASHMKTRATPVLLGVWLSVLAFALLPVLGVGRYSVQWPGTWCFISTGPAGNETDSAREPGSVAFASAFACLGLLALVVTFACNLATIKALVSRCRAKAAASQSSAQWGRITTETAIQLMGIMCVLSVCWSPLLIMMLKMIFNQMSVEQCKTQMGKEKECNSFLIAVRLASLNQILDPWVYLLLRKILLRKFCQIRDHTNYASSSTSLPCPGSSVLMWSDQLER
The experiment in a line: Antagonist activity at rat EP3 receptor expressed in human U2OS cells co-expressing Gqi5 assessed as inhibition of PGE2-induced response after 24 hrs by FLIPR assay. The class given is functional, cell-based.

In data set [7] the target is T3, Prostaglandin E2 receptor EP3 subtype (Homo sapiens, UniProt P43115).
T3 sequence (P43115 whole entry): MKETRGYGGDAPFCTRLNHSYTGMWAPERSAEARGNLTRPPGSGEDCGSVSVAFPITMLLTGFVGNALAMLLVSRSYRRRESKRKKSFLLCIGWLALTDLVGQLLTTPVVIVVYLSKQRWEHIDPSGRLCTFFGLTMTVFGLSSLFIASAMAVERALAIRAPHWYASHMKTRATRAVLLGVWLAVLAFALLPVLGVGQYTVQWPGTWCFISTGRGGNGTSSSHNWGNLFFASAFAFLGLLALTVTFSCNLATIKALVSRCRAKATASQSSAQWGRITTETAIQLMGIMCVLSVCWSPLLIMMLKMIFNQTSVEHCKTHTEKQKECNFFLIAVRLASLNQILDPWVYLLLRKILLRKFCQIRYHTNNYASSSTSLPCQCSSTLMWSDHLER
Briefly: Antagonist activity at human EP3c receptor expressed in human U2OS cells assessed as inhibition of PGE2-induced calcium mobilization after 24 hrs by FLIPR assay. The class given is functional, cell-based.

A short description of data set [8]: Drug metabolism in rat liver S9 fraction assessed as glutathione conjugate level at 10 uM after 30 mins by HPLC in absence of NADPH. The class given is ADME, subcellular. The note with it: s9, 0.5 h.
Data set [9] can be described thus: Drug metabolism in rat liver S9 fraction assessed as NADPH-dependent glutathione conjugate level at 10 uM after 30 mins by LC-MS/MS analysis. In kind it is ADME, subcellular. The note with it: s9, 0.5 h.
Data set [10] can be described thus: Drug metabolism in human liver S9 fraction assessed as NADPH-dependent glutathione conjugate level at 10 uM after 30 mins by LC-MS/MS analysis. In kind it is ADME, subcellular. To be noted: s9, 0.5 h.
Data set [11] is described as follows: Drug metabolism in human liver S9 fraction assessed as glutathione conjugate level at 10 uM after 30 mins by HPLC in absence of NADPH. In kind it is ADME, subcellular. To be noted: s9, 0.5 h.
Data set [12] is described as follows: Antagonist activity at dog EP3 receptor expressed in human U2OS cells co-expressing Gqi5 assessed as inhibition of PGE2-induced response after 24 hrs by FLIPR assay. In kind it is functional, cell-based, Canis lupus familiaris.
For data set [13], the system named is Rattus norvegicus. The experiment in a line: Inhibition of GR63799-induced decrease in bladder capacity in conscious spontaneously hypertensive overactive bladder rat model at 3 mg/kg, id. The class given is functional, organism-based. The note with it: Urinary bladder. More on the design: dose 3 mg/kg.
The subject of data set [14] is Rattus norvegicus. The experiment in a line: Inhibition of GR63799-induced decrease in bladder capacity in conscious spontaneously hypertensive overactive bladder rat model at 0.3 mg/kg, id. In kind it is functional, organism-based. Also noted: dose 0.3 mg/kg. The note with it: Urinary bladder.
Data set [15] has as its system Rattus norvegicus. Briefly: Inhibition of PGE2-induced decrease in bladder capacity in conscious spontaneously hypertensive overactive bladder rat model at 30 mg/kg, id. More on the design: dose 30 mg/kg. The class given is functional, organism-based. The note with it: Urinary bladder.
For data set [16], the system named is Rattus norvegicus. The experiment in a line: Inhibition of acetic acid-induced decrease in bladder capacity in conscious spontaneously hypertensive overactive bladder rat model at 30 mg/kg, id. In kind it is functional, organism-based. More on the design: dose 30 mg/kg. The note with it: Urinary bladder.
The test system of data set [17] is Rattus norvegicus. The experiment in a line: Inhibition of saline-induced bladder rhythmic contraction in anesthetized iv dosed Sprague-Dawley rat model. In kind it is functional, organism-based.
The subject of data set [18] is Rattus norvegicus. The experiment in a line: Inhibition of GR63799-induced decrease in bladder capacity in conscious spontaneously hypertensive overactive bladder rat model at 30 mg/kg, id. The class given is functional, organism-based. Also noted: dose 30 mg/kg. To be noted: Urinary bladder.

The structures appear in SMILES notation. Calls of active or inactive are those of the source. The rule behind the calls is not given here.

One may read the bioavailability as dose-corrected exposure relative to a reference, in per cent. A high value points to good availability. Usually Ki stands for a measure of affinity in units of concentration, obtained from inhibition or displacement. A word on the half-life: it is the time in which the quantity being followed falls by half. Read a low half-life as fast loss. In the case of `O=C1NC(=O)C(c2ccc(-c3ccc4ccccc4c3)[nH]c2=O)O1` (centres undefined), the bioavailability in data set [1] was determined as 32%. Also, the inhibition constant (Ki) is greater than 5.01 µM in [2], 316 nM in [6] and 200 nM in data set [7]. The same molecule showed a half-life in [3] of 306 min. The clearance in data set [4] worked out at 31 mL/min/kg. This molecule displayed an AUC/dose in the data set on Rattus norvegicus [5] of 0.17 µg·h/mL/mg/kg.

In turn, `CC(C)C1(c2ccc(-c3ccc4c(ccn4C)c3)[nH]c2=O)OC(=O)NC1=O` (centres undefined) gave a bioavailability in data set [1] of 80%. Moreover, the Drug metabolism entry in data set [8], in [9], in data set [10] and in data set [11] was “Not Active” throughout. Moreover, the half-life in [3] was 252 min. For the same molecule, in data set [4], the clearance was 4.5 mL/min/kg. Further, the AUC/dose in the data set with Rattus norvegicus [5] was 3 µg·h/mL/mg/kg. The values for the Ki in [6] and in [7] were 7.94 nM and 6.31 nM, respectively.

Take `Cc1ccc(-c2ccc(C3(C(C)C)OC(=O)NC3=O)c(=O)[nH]2)cc1C` (centres undefined): the bioavailability in data set [1] was 68%. The Drug metabolism entry in data set [8], in data set [9], in [10] and in data set [11] was “Not Active” each time. The molecule also showed a half-life in data set [3] of 168 min. In addition, the clearance in data set [4] stood at 6.3 mL/min/kg. The same molecule showed an AUC/dose in the data set with Rattus norvegicus [5] of 1.8 µg·h/mL/mg/kg. For the same molecule, the inhibition constant (Ki) in [6] is 12.6 nM; in data set [7], 20 nM.

What is called pKi is the negative decadic logarithm of the Ki, by convention in mol/L. For `CC(C)C1(c2ccc(-c3ccc4ccccc4c3)[nH]c2=O)OC(=O)NC1=O` (centres undefined), the negative-log Ki (pKi) in data set [12] is reported as 7.7. Further, the inhibition entry in the data set on Rattus norvegicus [13], with Rattus norvegicus [15], in the data set on Rattus norvegicus [16] and in the data set with Rattus norvegicus [18] was “Active” each time. Besides, in the data set with Rattus norvegicus [14], the inhibition result is “inactive”. The inhibition entry with Rattus norvegicus [17] was “Dose-dependent effect”.

In data set [1], `CC(C)C1(c2ccc(-c3ccc4cccc(F)c4c3)[nH]c2=O)OC(=O)NC1=O` (centres undefined) came in with a bioavailability of 93%. The Drug metabolism entry in data set [8], in data set [9], in [10] and in [11] was “Not Active” each time. In addition, in data set [3], the half-life is 234 min. Further, the clearance in [4] came to 2.8 mL/min/kg. The molecule further yielded an AUC/dose in the data set with Rattus norvegicus [5] of 5.6 µg·h/mL/mg/kg. Besides, the inhibition constant Ki in data set [6] and in [7] was 3.16 nM in each case.
